In ChEMBL document CHEMBL5321216, “Discovery of bipyridine amide derivatives targeting pRXRα-PLK1 interaction for anticancer therapy” (Eur J Med Chem, 2023):

How the values were obtained:
A549 = experiment: Induction of cell cycle arrest in RXRalpha knockout human A549 cells assessed as accumulation of cells at G2 phase at 125 nM incubated for 12 hrs by DAPI staining based flow cytometry analysis (reference value: 14.97%); format: functional
MDA-MB-231 [1] = experiment: Inhibition of colony formation in human MDA-MB-231 cells incubated for 48 hrs followed by replacement with normal culture medium and measured after […] by crystal violet staining based assay; format: functional, cell-based; details: dose 0.976-250 nM
MDA-MB-231 [2] = experiment: Induction of apoptosis in human MDA-MB-231 cells assessed as reduction in Bcl-2 protein expression measured after 24 hrs by Western blot analysis; format: functional, cell-based; details: dose 7.8-500 nM
[3] = molecular target: T1, Retinoic acid receptor RXR-alpha (Homo sapiens, UniProt P19793); experiment: Binding affinity to RXRalpha LBD (unknown origin) assessed as increase in response unit by measuring dissociation constant by SPR analysis
T1 sequence (P19793 whole entry): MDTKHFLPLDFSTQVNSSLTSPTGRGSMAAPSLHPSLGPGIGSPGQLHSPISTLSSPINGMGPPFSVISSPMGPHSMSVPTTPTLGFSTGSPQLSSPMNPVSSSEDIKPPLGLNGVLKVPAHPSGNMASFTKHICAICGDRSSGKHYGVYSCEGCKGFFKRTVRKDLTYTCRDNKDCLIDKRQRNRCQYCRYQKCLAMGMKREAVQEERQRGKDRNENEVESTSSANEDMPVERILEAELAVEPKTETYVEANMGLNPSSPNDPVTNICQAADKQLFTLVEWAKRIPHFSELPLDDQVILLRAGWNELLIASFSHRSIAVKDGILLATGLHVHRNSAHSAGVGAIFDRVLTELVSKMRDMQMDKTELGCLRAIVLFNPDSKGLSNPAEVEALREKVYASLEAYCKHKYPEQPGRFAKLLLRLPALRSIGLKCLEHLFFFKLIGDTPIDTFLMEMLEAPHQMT

MDA-MB-231 [4] = experiment: Induction of cell cycle arrest in human MDA-MB-231 cells assessed as accumulation of cells at G1 phase at 31.25 nM incubated for 12 hrs by flow cytometry analysis (reference value: 43.2%); format: functional
MDA-MB-231 [5] = experiment: Induction of cell cycle arrest in human MDA-MB-231 cells assessed as accumulation of cells at G1 phase at 62.5 nM incubated for 12 hrs by flow cytometry analysis (reference value: 43.2%); format: functional
MDA-MB-231 [6] = experiment: Induction of apoptosis in human MDA-MB-231 cells assessed as early apoptotic cells at 31.25 nM incubated for 24 hrs by annexin V-FITC/PI staining based flow cytometry analysis (reference value: 2.03%); format: functional
MDA-MB-231 [7] = experiment: Induction of apoptosis in human MDA-MB-231 cells assessed as late apoptotic cells at 31.25 nM incubated for 24 hrs by annexin V-FITC/PI staining based flow cytometry analysis (reference value: 5.93%); format: functional
MDA-MB-231 [8] = experiment: Induction of apoptosis in human MDA-MB-231 cells assessed as early apoptotic cells at 62.5 nM incubated for 24 hrs by annexin V-FITC/PI staining based flow cytometry analysis (reference value: 2.03%); format: functional
MDA-MB-231 [9] = experiment: Induction of apoptosis in human MDA-MB-231 cells assessed as dead cells at 62.5 nM incubated for 24 hrs by annexin V-FITC/PI staining based flow cytometry analysis (reference value: 0.69%); format: functional
MDA-MB-231 [10] = experiment: Induction of apoptosis in human MDA-MB-231 cells assessed as dead cells at 125 nM incubated for 24 hrs by annexin V-FITC/PI staining based flow cytometry analysis (reference value: 0.69%); format: functional

## O=C(/C=C/c1ccccc1)Nc1cc(-c2ccnc(N3CCC(CO)CC3)c2)ccn1
A549
  Activity: 45.99%
MDA-MB-231 [1]
  inhibition: Dose-Dependent Effect
MDA-MB-231 [2]
  Activity: Dose-Dependent Effect
[3]
  Kd: 39.4 nM
MDA-MB-231 [4]
  Activity: 42.63%
MDA-MB-231 [5]
  Activity: 1.81%
MDA-MB-231 [6]
  Activity: 2.24%
MDA-MB-231 [7]
  Activity: 14.7%
MDA-MB-231 [8]
  Activity: 13.1%
MDA-MB-231 [9]
  Activity: 2.47%
MDA-MB-231 [10]
  Activity: 2.78%
